Source: patent publication US10442807B2, “Aryl substituted bicyclic compounds as herbicides” (FMC Corporation, priority 2015, dated 2019)

How the values were obtained:
Type in all cases: in vivo
[1] = tested on: barnyardgrass (Echinochloa crus-galli); assay: Test B flooded paddy test, visual plant response rating; conditions: 500 g ai/ha; applied to paddy water at 2-leaf stage; rated after 13 to 15 days; scale 0 to 100, 0 is no effect, 100 is complete control
Description: (§1) At time of treatment, test pots were flooded to 3 cm above the soil surface, treated by application of test compounds directly to the paddy water, and then maintained at that water depth for the duration of the test. Treated plants and controls were maintained in a greenhouse for 13 to 15 days, after which time all species were compared to controls and visually evaluated. Plant response ratings, summarized in Table B, are based on a scale of 0 to 100 where 0 is no effect and 100 is complete control. A dash (-) response means no test result.

[2] = tested on: ducksalad (Heteranthera limosa); assay: as above; conditions: 500 g ai/ha; applied to paddy water at 2-leaf stage; rated after 13 to 15 days; scale 0 to 100, 0 is no effect, 100 is complete control
Description: as §1

[3] = tested on: rice (Oryza sativa); assay: as above; conditions: 500 g ai/ha; applied to paddy water at 2-leaf stage; rated after 13 to 15 days; scale 0 to 100, 0 is no effect, 100 is complete control
Description: as §1

[4] = tested on: sedge, umbrella (small-flower umbrella sedge, Cyperus difformis); assay: as above; conditions: 500 g ai/ha; applied to paddy water at 2-leaf stage; rated after 13 to 15 days; scale 0 to 100, 0 is no effect, 100 is complete control
Description: as §1

[5] = tested on: barnyardgrass (Echinochloa crus-galli); assay: Test A preemergence, directed soil spray, visual injury rating; conditions: approx. 10 d, 0 = no effect, 100 = complete control
Description: (§2) Seeds of plant species selected from barnyardgrass (Echinochloa crus-galli), kochia (Kochia scoparia), ragweed (common ragweed, Ambrosia elation), ryegrass, Italian (Italian ryegrass, Lolium multiflorum), foxtail, giant (giant foxtail, Setaria faberii), and pigweed (Amaranthus retroflexus), were planted into a blend of loam soil and sand and treated preemergence with a directed soil spray using test chemicals formulated in a non-phytotoxic solvent mixture which included a surfactant. At the same time, plants selected from these weed species and also blackgrass (Alopecurus myosuroides), galium (catchweed bedstraw, Galium aparine), wheat (Triticum aestivum), and corn (Zea mays) were planted in pots containing the same blend of loam soil and sand and treated with postemergence applications of test chemicals formulated in the same manner. Plants ranged in height from 2 to 10 cm and were in the one- to two-leaf stage for the postemergence treatment. Treated plants and untreated controls were maintained in a greenhouse for approximately 10 d, after which time all treated plants were compared to untreated controls and visually evaluated for injury. Plant response ratings, summarized in Table A, are based on a 0 to 100 scale where 0 is no effect and 100 is complete control. A dash (-) response means no test result.

[6] = tested on: foxtail, giant (giant foxtail, Setaria faberii); assay: as above; conditions: approx. 10 d, 0 = no effect, 100 = complete control
Description: as §2

[7] = tested on: ragweed (common ragweed, Ambrosia elation); assay: as above; conditions: approx. 10 d, 0 = no effect, 100 = complete control
Description: as §2

[8] = tested on: kochia (Kochia scoparia); assay: as above; conditions: approx. 10 d, 0 = no effect, 100 = complete control
Description: as §2

[9] = tested on: ryegrass, Italian (Italian ryegrass, Lolium multiflorum); assay: as above; conditions: approx. 10 d, 0 = no effect, 100 = complete control
Description: as §2

[10] = tested on: pigweed (Amaranthus retroflexus); assay: as above; conditions: approx. 10 d, 0 = no effect, 100 = complete control
Description: as §2

[11] = tested on: barnyardgrass (Echinochloa crus-galli); assay: Test A postemergence application, visual injury rating; conditions: approx. 10 d, 0 = no effect, 100 = complete control
Description: as §2

[12] = tested on: foxtail, giant (giant foxtail, Setaria faberii); assay: as above; conditions: approx. 10 d, 0 = no effect, 100 = complete control
Description: as §2

[13] = tested on: blackgrass (Alopecurus myosuroides); assay: as above; conditions: approx. 10 d, 0 = no effect, 100 = complete control
Description: as §2

[14] = tested on: ragweed (common ragweed, Ambrosia elation); assay: as above; conditions: approx. 10 d, 0 = no effect, 100 = complete control
Description: as §2

[15] = tested on: kochia (Kochia scoparia); assay: as above; conditions: approx. 10 d, 0 = no effect, 100 = complete control
Description: as §2

[16] = tested on: ryegrass, Italian (Italian ryegrass, Lolium multiflorum); assay: as above; conditions: approx. 10 d, 0 = no effect, 100 = complete control
Description: as §2

[17] = tested on: galium (catchweed bedstraw, Galium aparine); assay: as above; conditions: approx. 10 d, 0 = no effect, 100 = complete control
Description: as §2

[18] = tested on: pigweed (Amaranthus retroflexus); assay: as above; conditions: approx. 10 d, 0 = no effect, 100 = complete control
Description: as §2

[19] = tested on: wheat (Triticum aestivum); assay: as above; conditions: approx. 10 d, 0 = no effect, 100 = complete control
Description: as §2

[20] = tested on: corn (Zea mays); assay: as above; conditions: approx. 10 d, 0 = no effect, 100 = complete control
Description: as §2

| SMILES | Barnyardgrass plant response rating (0 to 100 scale) ([5]; 125 g ai/ha) | Barnyardgrass plant response rating (0 to 100 scale) ([5]; 500 g ai/ha) | Foxtail, Giant plant response rating (0 to 100 scale) ([6]; 125 g ai/ha) | Foxtail, Giant plant response rating (0 to 100 scale) ([6]; 500 g ai/ha) | Ragweed plant response rating (0 to 100 scale) ([7]; 125 g ai/ha) | Ragweed plant response rating (0 to 100 scale) ([7]; 500 g ai/ha) | Kochia plant response rating (0 to 100 scale) ([8]; 125 g ai/ha) | Kochia plant response rating (0 to 100 scale) ([8]; 500 g ai/ha) | Ryegrass, Italian plant response rating (0 to 100 scale) ([9]; 125 g ai/ha) | Ryegrass, Italian plant response rating (0 to 100 scale) ([9]; 500 g ai/ha) | Pigweed plant response rating (0 to 100 scale) ([10]; 125 g ai/ha) | Pigweed plant response rating (0 to 100 scale) ([10]; 500 g ai/ha) | Barnyardgrass plant response rating (0 to 100 scale) ([11]; 125 g ai/ha) | Barnyardgrass plant response rating (0 to 100 scale) ([11]; 500 g ai/ha) | Foxtail, Giant plant response rating (0 to 100 scale) ([12]; 125 g ai/ha) | Foxtail, Giant plant response rating (0 to 100 scale) ([12]; 500 g ai/ha) | Blackgrass plant response rating (0 to 100 scale) ([13]; 125 g ai/ha) | Blackgrass plant response rating (0 to 100 scale) ([13]; 500 g ai/ha) | Ragweed plant response rating (0 to 100 scale) ([14]; 125 g ai/ha) | Ragweed plant response rating (0 to 100 scale) ([14]; 500 g ai/ha) | other results |
| --- | --- | --- | --- | --- | --- | --- | --- | --- | --- | --- | --- | --- | --- | --- | --- | --- | --- | --- | --- | --- | --- |
| O=C(Nc1ccccc1F)C1c2nncn2CC1c1cccc(C(F)(F)F)c1 (centres unmarked) [Compound 2, N-(2-fluorophenyl)-6,7-dihydro-6-[3-(trifluoromethyl)phenyl]-5H-pyrrolo[2,1-c]-1,2,4-triazole-7-carboxamide] | 60 | 90 | 90 | 90 | 0 | 0 | 0 | 0 | 0 | 0 | 0 | 0 | 60 | 80 | 50 | 90 | 40 | 70 | 0 | 10 | Plant response rating, Flood, Barnyardgrass [1]: 0; Plant response rating, Flood, Ducksalad [2]: 0; Plant response rating, Flood, Rice [3]: 0; Plant response rating, Flood, Sedge, Umbrella [4]: 0; Kochia plant response rating (0 to 100 scale) ([15]; 125 g ai/ha): 0; Kochia plant response rating (0 to 100 scale) ([15]; 500 g ai/ha): 30; Ryegrass, Italian plant response rating (0 to 100 scale) ([16]; 125 g ai/ha): 0; Ryegrass, Italian plant response rating (0 to 100 scale) ([16]; 500 g ai/ha): 50; Galium plant response rating (0 to 100 scale) ([17]; 125 g ai/ha): 50; Galium plant response rating (0 to 100 scale) ([17]; 500 g ai/ha): 50; Pigweed plant response rating (0 to 100 scale) ([18]; 125 g ai/ha): 0; Pigweed plant response rating (0 to 100 scale) ([18]; 500 g ai/ha): 10; Wheat plant response rating (0 to 100 scale) ([19]; 125 g ai/ha): 0; Wheat plant response rating (0 to 100 scale) ([19]; 500 g ai/ha): 50; Corn plant response rating (0 to 100 scale) ([20]; 125 g ai/ha): 20; Corn plant response rating (0 to 100 scale) ([20]; 500 g ai/ha): 40 |
| O=C(Nc1ccccc1F)C1C2=NCC(=O)N2CC1c1cccc(C(F)(F)F)c1 (centres unmarked) [Compound 3, N-(2-fluorophenyl)-2,3,6,7-tetrahydro-3-oxo-6-[3-(trifluoromethyl)phenyl]-5H-pyrrolo[1,2-a]imidazole-7-carboxamide] | 0 | 60 | 0 | 80 | 0 | 0 | 0 | 0 | 0 | 0 | 0 | 0 | 0 | 30 | 20 | 50 | 0 | 0 | 0 | 0 | Kochia plant response rating (0 to 100 scale) ([15]; 125 g ai/ha): 0; Kochia plant response rating (0 to 100 scale) ([15]; 500 g ai/ha): 0; Ryegrass, Italian plant response rating (0 to 100 scale) ([16]; 125 g ai/ha): 0; Ryegrass, Italian plant response rating (0 to 100 scale) ([16]; 500 g ai/ha): 10; Galium plant response rating (0 to 100 scale) ([17]; 125 g ai/ha): 0; Galium plant response rating (0 to 100 scale) ([17]; 500 g ai/ha): 0; Pigweed plant response rating (0 to 100 scale) ([18]; 125 g ai/ha): 0; Pigweed plant response rating (0 to 100 scale) ([18]; 500 g ai/ha): 0; Wheat plant response rating (0 to 100 scale) ([19]; 125 g ai/ha): 0; Wheat plant response rating (0 to 100 scale) ([19]; 500 g ai/ha): 0; Corn plant response rating (0 to 100 scale) ([20]; 125 g ai/ha): 0; Corn plant response rating (0 to 100 scale) ([20]; 500 g ai/ha): 0 |
